Tests used:
hIL17 = assay: IL-17 release from differentiated primary human T-cells (IL-17A HTRF assay); type: cell-based; settings: inhibition of IL-17A levels; primary human CD4+ T cells differentiated into Th17 cells, 46-hour incubation
Outline: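 Cryopreserved primary human CD4+ T cells were activated with anti-CD3/CD28 beads and driven to Th17 with TGF-β, IL-6, IL-23 and IL-1β in the presence of compound (2-500 nM or 4-1000 nM) for 46 h at 37° C. Supernatant IL-17A was quantified by HTRF against a standard curve and normalized to DMSO. IC50s came from variable-slope fits, with viability read by CyQuant.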

human RORγ = biological target: T1, human RORγ (Homo sapiens, UniProt P51449); assay: RORγ assay (GAL4-RORγ hybrid luciferase reporter, inverse-agonist activity); type: cell-based; settings: GAL4-RORγ hybrid reporter cells, 23 hours
T1 sequence (P51449 269-508 limits assumed): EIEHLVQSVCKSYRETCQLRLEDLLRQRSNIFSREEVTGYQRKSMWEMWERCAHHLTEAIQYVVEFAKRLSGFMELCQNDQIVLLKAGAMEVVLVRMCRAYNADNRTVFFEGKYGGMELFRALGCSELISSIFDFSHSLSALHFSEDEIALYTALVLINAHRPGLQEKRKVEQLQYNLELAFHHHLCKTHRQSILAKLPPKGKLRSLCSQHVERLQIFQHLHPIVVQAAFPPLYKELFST
Outline: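 Human cell line expressing GAL4-DBD/RORγ hybrid with UAS-driven luciferase, treated in triplicate with compound (0.4–200 nM or 2–1000 nM) for 23 h at 37 °C. Luminescence normalized to DMSO; viability measured in parallel by multiplex assay. IC50 for RORγ and viability by variable-slope nonlinear regression.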

NRF2 = assay: AREc32 luciferase reporter assay; type: cell-based, human; settings: EC2×: concentration required to increase GST ARE Luciferase reporter activity by 2-fold; AREc32 cells, 19 hours
Outline: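 AREc32 cells (MCF-7 stably carrying eight rat GSTA2 ARE copies driving firefly luciferase) treated 19 h with compound (0.4–200 nM or 2–1000 nM), triplicate. Luminescence normalized to DMSO as fold-induction; variable-slope fit capped at 50-fold; EC2× = concentration giving 2-fold induction.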

[1] = tested on: IFNγ-induced Nitric Oxide production; assay: Nitric oxide production assay in RAW 264.7 mouse macrophages; type: cell-based; settings: RAW264.7, suppression of IFNγ-induced NO production normalized to cell viability (WST-1), RAW 264.7, 24 hours IFNγ
Outline: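 Cells pre-treated 2 h with compound (0.4-200 nM or 2-1000 nM) in RPMI 1640 + 0.5% FBS, then stimulated with recombinant mouse IFNγ for 24 h at 37 °C. Nitrite measured by Griess reagent, viability by WST-1; IC50 from NO suppression normalized to viability and to DMSO/IFNγ controls.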

Row | IC50 (hIL17) [nM] | IC50 (human RORγ) [nM] | SMILES | EC2x: concentration giving 2-fold induction of ARE luciferase reporter (NRF2) [nM] | IC50 [1] [nM]
1 | 92 | 406 | COC(=O)[C@]12CCC(C)(C)C[C@H]1[C@H]1C(=O)C=C3[C@@]4(C)C=C(C#N)C(=O)[C@@](C)(c5nnc(C)o5)[C@@H]4CC[C@@]3(C)[C@]1(C)CC2 [Compound T16, methyl (4aS,6aR,6bS,8aR,9R,12aS,14aR,14bS)-11-cyano-2,2,6a,6b,9,12a-hexamethyl-9-(5-methyl-1,3,4-oxadiazol-2-yl)-10,14-dioxo-1,3,4,5,6,6a,6b,7,8,8a,9,10,12a,14,14a,14b-hexadecahydropicene-4a(2H)-carboxylate] | >1000 | 615
2 | 17 | 165 | Cc1noc([C@]23CCC(C)(C)C[C@H]2[C@H]2C(=O)C=C4[C@@]5(C)C=C(C#N)C(=O)[C@@](C)(CO)[C@@H]5CC[C@@]4(C)[C@]2(C)CC3)n1 [Compound T45, (4R,4aR,6aS,6bR,8aS,12aS,12bR,14bS)-4-(hydroxymethyl)-4,6a,6b, 11,11,14b-hexamethyl-8a-(3-methyl-1,2,4-oxadiazol-5-yl)-3,13-dioxo-3,4,4a,5,6,6a,6b,7,8,8a,9,10,11,12,12a,12b,13,14b-octadecahydropicene-2-carbonitrile] | 47 | 6.9
3 | 15 | 159 | CC1(C)CC[C@@]23CC[C@@]4(C)[C@]5(C)CC[C@H]6C(C)(C)C(=O)C(C#N)=C[C@]6(C)C5=CC(=O)[C@]4(OC2=O)[C@@H]3C1 [Comparison Compound #6, reference compound] | 2 | 0.7
4 | 40 | 144 | COC(=O)[C@]12CCC(C)(C)C[C@H]1[C@H]1C(=O)C=C3[C@@]4(C)C=C(C#N)C(=O)C[C@@H]4CC[C@@]3(C)[C@]1(C)CC2 [Compound T1] | 50 | 8.1
5 | 50 | 236 | Cc1nnc([C@]23CCC(C)(C)C[C@H]2[C@H]2C(=O)C=C4[C@@]5(C)C=C(C#N)C(=O)[C@@](C)(O)[C@@H]5CC[C@@]4(C)[C@]2(C)CC3)o1 [Compound T44, (4S,4aR,6aS,6bR,8aS,12aS,12bR,14bS)-4-hydroxy-4,6a,6b, 11,11,14b-hexamethyl-8a-(5-methyl-1,3,4-oxadiazol-2-yl)-3,13-dioxo-3,4,4a,5,6,6a,6b,7,8,8a,9,10,11,12,12a,12b,13,14b-octadecahydropicene-2-carbonitrile] | 156 | 72.8
6 | 38 | 177 | C[C@@H]1C(=O)C(C#N)=C[C@]2(C)C3=CC(=O)[C@@H]4[C@@H]5CC(C)(C)CC[C@]5(NC(=O)C(C)(F)F)CC[C@@]4(C)[C@]3(C)CC[C@@H]12 [Comparison Compound #4, reference compound] | 11 | 0.6
7 | 75 | 146 | COC(=O)[C@]12CCC(C)(C)C[C@H]1[C@H]1C(=O)C=C3[C@@]4(C)C=C(C#N)C(=O)[C@@](C)(N)[C@@H]4CC[C@@]3(C)[C@]1(C)CC2 [Compound T11, methyl (4aS,6aR,6bS,8aR,9S,12aS,14aR,14bS)-9-amino-11-cyano-2,2,6a,6b,9,12a-hexamethyl-10,14-dioxo-1,3,4,5,6,6a,6b,7,8,8a,9,10,12a,14,14a,14b-hexadecahydropicene-4a(2H)-carboxylate] | 477 | 601
8 | 32 | 115 | COC(=O)[C@]12CCC(C)(C)C[C@H]1[C@H]1C(=O)C=C3[C@@]4(C)C=C(C#N)C(=O)[C@](C)(O)[C@@H]4CC[C@@]3(C)[C@]1(C)CC2 [Compound T6, methyl (4aS,6aR,6bS,8aR,9R,12aS,14aR,14bS)-11-cyano-9-hydroxy-2,2,6a,6b,9,12a-hexamethyl-10,14-dioxo-1,3,4,5,6,6a,6b,7,8,8a,9,10,12a,14,14a,14b-hexadecahydropicene-4a(2H)-carboxylate] | 30 | 9.2
9 | 30 | 250 | COCC[C@]1(C)C(=O)C(C#N)=C[C@]2(C)C3=CC(=O)[C@@H]4[C@@H]5CC(C)(C)CC[C@]5(C(=O)OC)CC[C@@]4(C)[C@]3(C)CC[C@H]21 [Compound T17, methyl (4aS,6aR,6bS,8aR,9S,12aS,14aR,14bS)-11-cyano-9-(2-methoxyethyl)-2,2,6a,6b,9,12a-hexamethyl-10,14-dioxo-1,3,4,5,6,6a,6b,7,8,8a,9,10,12a,14,14a,14b-hexadecahydropicene-4a(2H)-carboxylate] | 64 | 19.5

Source: patent publication US11584775B2, “C4-modified oleanolic acid derivatives for inhibition of IL-17 and other uses” (REATA PHARMACEUTICALS, INC., priority 2015, dated 2023)
